{"source": "patent EP3572468B1", "about": "“CYANINE DYES AND THEIR USAGE FOR IN VIVO STAINING OF MICROORGANISMS” (PHILIPPS-UNIVERSITÄT MARBURG, priority 2018, dated 2019)", "key": {"[1]": {"target": "dsDNAhAT (double-stranded DNA hairpin with the consensus sequence ATTA)", "test": "Fluorescence titration with hairpin dsDNAhAT, binding affinity by DynaFit", "conditions": "1 µM dye in 10 mM Tris pH 7.6 and 50 mM KCI, 20°C, emission at 647 nm, 1:1 binding model, read-out: binding affinity (KD, apparent dissociation constant)", "protocol": "(§1) Fluorescence measurements and tritations were performed on a Jasco FP-6500 spectrofluorometer equipped with a Thermo Haake WKL 26 water recirculator at 20°C. Unless otherwise noted, a 1400 µL fluorescence cuvette of HellmaAnalytics (104F-QS) was used and the measurements were performed with the following settings: increment: 1.0 nm; integration time: 0.2 s; speed: 500 nm/min; sensitivity: medium; excitation slit width: 3 nm; emission slit width: 3 nm; excitation wavelength 610 nm. The emission spectra were recorded from 625 to 750 nm at 20°C. From all spectra, the corresponding background signal was substracted. […] Table 1: Binding sites and sequences of DNA hairpins, which were used for fluorescence titrations experiments.\n(§2) All fluorescence titrations followed the same procedure: to 1 mL of 1 µM solution of corresponding cyanine dye derivative in 10 mM Tris pH 7.6 and 50 mM KCI aliquots of a stock solution of the corresponding annealed DNA (dsDNAhAT and dsDNAhGC = 435 µM; dsDNACT = 0.65 mM) were successively added and the fluorescence spectra were recorded in a range from 625-750 nm after 1 min of each addition. […] The fluorescence emission plotted is the resulting mean of the three independent measurements. […]\n(§3) All binding affinities were determined by fitting the obtained experimental data in the DynaFit 4.0 software. […]"}, "[2]": {"target": "dsDNAhGC (double-stranded DNA hairpin with the consensus sequence GGCCC)", "test": "Fluorescence titration with hairpin dsDNAhGC, binding affinity by DynaFit", "conditions": "1 µM dye in 10 mM Tris pH 7.6 and 50 mM KCI, 20°C, emission at 650 nm, 1:1 binding model, read-out: binding affinity (KD, apparent dissociation constant)", "protocol": "as §1, §2, §3"}, "[3]": {"test_system": "dsDNACT", "test": "Fluorescence quantum yield with dsDNACT", "assay_type": "physicochemical, calf", "conditions": "with dsDNACT (30 eq.); 10 mM Tris pH 7.6 and 50 mM KCI, 25°C; reference dye Alexa Fluor 647", "protocol": "Fluorescence intensity values for the quantum yields were determined on an ISS PC1 spectrofluorometer with an ISS 11650 lamp connected to an ISS Simpson model 109 and an ISS 80011 photomulitplier connected to a MGW Lauda K2R D and an Amherst Scientific Corp. 7600F for cooling. A VWR Refrigerated Circ 1160S was connected for the cooling of the cuvette chamber. It was measured in a 1400 µL fluorescence cuvette of HellmaAnalytics (104F-QS) at 25°C using the following settings: increment: 2.0 nm; integration time: 1.0 s; excitation slit width: 0.25 mm; emission slit width: 0.5 mm; excitation wavelength 590 nm. The emission spectra were recorded from 610 to 750 nm. From all spectra the corresponding background signal was substracted. Absorbance values were measured on a Jasco V-650 UV-Vis Spectrophotometer equipped with a Jasco PAC-743 temperature controlled cell holder and a Julabo F250 cooling system. […] The values for the reference compounds were measured in duplicates, the ones for 6-TramTO-3 with and without dsDNACT in triplicates. The quantum yields of 6-TramTO-3 with (30 eq.) and without dsDNACT were determined in 10 mM Tris pH 7.6 and 50 mM KCI. […]\nTable 3: Determined slopes and corresponding quantum yields for the two reference compounds Alexa Flour® 647 and Atto 655 and for 6-TramTO-3 with and without dsDNACT."}, "[4]": {"test_system": "antibiotic-sensitive Klebsiella pneumoniae (K. pneumoniae)", "test": "Bacteria culture and staining: growth and FACS labeling of sensitive K. pneumoniae", "assay_type": "cell-based", "conditions": "2.5 µM dye", "protocol": "Escherichia coli (E. coli) NEB5α (New England Biolabs) and antibiotic-resistant and -sensitive Klebsiella pneumoniae (K. pneumoniae) were cultured in Luria-Bertani (LB) solid medium (LB-Agar) overnight at 37°C. The source of the K. pneumoniae strands is of no relevance to the invention. The invention may be applied to all types of microorganisms (bacteria, viri, fungi etc.) or other cells, either contained within a sample or isolated from a sample. For staining, growth curve analysis and replating experiments bacteria were suspended in LB liquid medium at an OD600 nm of 1.0 and 800 µL were transferred into a culture tube containing 7.2 mL of LB liquid medium supplemented with DMSO or candidate dyes (2.5 µM) final concentration). Density of bacterial cultures was measured using an Ultrospec 10 Cell Density Meter with 600 nm LED source (Amersham Biosciences). […]\nBacteria and macrophages were washed with PBS prior to flow cytometry and analysed using a Guava easyCyte flow cytometer (Millipore). FCS3.0 files were analysed using Flowing Software (http://flowingsoftware.btk.fi/). Cells were first gated in the forward- / side-scatter plot to exclude debries, followed by quadrant gating in plots using the fluorescence channels as shown above. […] Propidium iodide signal was recorded in the yellow channel."}}, "data": [{"smiles": "CC[n+]1ccc(/C=C/C=C2\\Sc3ccccc3N2CCCCCCn2cc(CN)nn2)c2ccccc21.[I-]", "note": "[6-TramTO-3, 4-((1E,3Z)-3-(3-(6-(4-(aminomethyl)-1H-1,2,3-triazol-1-yl)hexyl)benzo[d]thiazol-2(3H)-ylidene)prop-1-en-1-yl)-1-ethylquinolin-1-ium iodide]", "values": [{"measurement": "Kd", "setting": "[1]", "value": "0.114 ± 0.03", "unit": "µM"}, {"measurement": "Kd", "setting": "[2]", "value": "0.104 ± 0.054", "unit": "µM"}, {"measurement": "quantum yield (ΦF)", "setting": "[3]", "value": 0.27}, {"measurement": "bacterial growth in presence of dye", "setting": "[4]", "value": "grew normally"}, {"measurement": "fluorescent labeling of live bacteria (FACS)", "setting": "[4]; OD600 = 2.0", "value": "successfully fluorescently labeled"}]}]}
